Results on 27 molecules are retold here after patent US20250332173A1, “COMPOUNDS AND METHODS FOR MODULATING NUCLEIC ACID SPLICING” (REMIX THERAPEUTICS INC., priority 2021, published 2025).

One test concerns SMN2 mRNA. Description: RT-qPCR splicing assay, SMN2 canonical junction (CJ) mRNA. The format is cell-based, human. The following applies: Homo sapiens; Table 5 panel; canonical junction qPCR; compound concentration having 50% response in CJ decrease; read-out: SMN2 IC50 (decrease in CJ mRNA levels). In a few lines:
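Read-out is canonical exon-exon junction mRNA quantified by RT-qPCR against a GAPDH, GUSB or PPIA control. Cells (A673 or K562) received compound for 24 h, top final dose 10 uM in an 11-point 3-fold series.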
On the technique in general: Real-time PCR tracks product formation cycle by cycle.

The subject of test [1] is K562 (human chronic myelogenous leukemia) cells. Description: Cell Titer Glo 2.0 cell viability assay. The format is cell-based. The following applies: Homo sapiens, K562, 72 h, K562 cells, 72 hours, Cell Titer Glo 2.0; read-out: K562 GI50. (ATP-based viability assays read luminescence as a measure of living cells.)
A further test has as its system HTT. Description: HiBiT protein abundance assay, HTT HiBiT K562 cell line. The class given is cell-based, human. The following applies: HiBiT K562 cell line, 24 hours, top dose 10 μM; read-out: Effect on protein abundance, HTT (IC50 category). In a few lines: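 Tagged-protein abundance measured by split-NanoBiT luminescence after lysis, following 24 h compound exposure (37° C; 10 μM top, 3-fold, 10 points; DMSO ≤0.25%) of HiBiT knock-in K562 cells. Percent response vs DMSO and unmodified-cell controls; 4-parameter logistic interpolation at 50% gave IC50.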
In general terms: HiBiT is a short tag that completes a luciferase, so light tracks the accessible tagged protein.

In the case of `Cc1cn2nc(-c3cc(F)c4c(=O)n(C5CCNC6(CC6)C5)ccc4c3)cc(C)c2n1` (stereo not drawn) [Compound 380, 6-(2,8-dimethylimidazo[1,2-b]pyridazin-6-yl)-8-fluoro-2-(4-azaspiro[2.5]octan-7-yl)isoquinolin-1(2H)-one], the IC50 with SMN2 mRNA and with HTT was < 100 nM in each case. Further, in test [1], the GI50 (usually the concentration giving 50% growth inhibition) fell in the range of 100 to 1000 nM.
As to `Cc1cn2nc(-c3ccc4c(=O)n(C5CCNCC5)cc(C)c4c3)cc(C)c2n1` [Compound 381, 6-{2,8-dimethylimidazo[1,2-b]pyridazin-6-yl}-4-methyl-2-(piperidin-4-yl)isoquinolin-1-one], the IC50 in the test with SMN2 mRNA and in the test on HTT was < 100 nM each time. Further, the GI50 in test [1] lay in the range of 100 to 1000 nM.
Turning to `Cc1cn2cc(-c3cc(F)c4c(=O)n(C5CCNCC5)ccc4c3)cc(C#N)c2n1` [Compound 383, 6-[8-fluoro-1-oxo-2-(piperidin-4-yl)isoquinolin-6-yl]-2-methylimidazo[1,2-a]pyridine-8-carbonitrile], the IC50 (in general, the concentration that inhibits the measured activity by half) with SMN2 mRNA is < 100 nM; in the test with HTT, 100 to 1000 nM. In test [1], the GI50 is 100 to 1000 nM.
Consider `Cc1cn2nc(-c3ccc4c(=O)n(C5CCNC6(CC6)C5)ccc4c3)cc(C)c2n1` (stereo not drawn) [Compound 384], for which the IC50 with SMN2 mRNA and in the test with HTT was < 100 nM in each case. Moreover, in test [1], the GI50 fell in the range of 100 to 1000 nM.
`Cc1cn2nc(-c3cc(C#N)c4c(=O)n(C5CCNC6(CC6)C5)ccc4c3)cc(C)c2n1` (stereo not drawn) [Compound 387]: the IC50 in the test with SMN2 mRNA and with HTT was < 100 nM each time. Moreover, in test [1], the GI50 was < 100 nM.
As to `Cc1cn2nc(-c3cc(Cl)c4c(=O)n(C5CCNCC5)ccc4c3)cc(C)c2n1` [Compound 390, 8-chloro-6-{2,8-dimethylimidazo[1,2-b]pyridazin-6-yl}-2-(piperidin-4-yl)isoquinolin-1-one; trifluoroacetaldehyde], the 50% inhibitory concentration (IC50) in the test on SMN2 mRNA and with HTT was < 100 nM in each case. For the same molecule, in test [1], the GI50 is < 100 nM.
In the case of `Cc1cn2nc(-c3cc(O)c4c(=O)n(C5CCNCC5)ccc4c3)cc(C)c2n1` [Compound 391, 6-(2,8-dimethylimidazo[1,2-b]pyridazin-6-yl)-8-hydroxy-2-(piperidin-4-yl)isoquinolin-1(2H)-one], the IC50 in the test on SMN2 mRNA and in the test with HTT was < 100 nM each time. The GI50 in test [1] is < 100 nM.
`CC(=O)c1cc(-c2cc(F)c3c(=O)n(C4CCNCC4)ccc3c2)cn2cc(C)nc12` [Compound 393, 6-{8-acetyl-2-methylimidazo[1,2-a]pyridin-6-yl}-8-fluoro-2-(piperidin-4-yl)isoquinolin-1-one 2,2,2-trifluoroacetate]: the IC50 is < 100 nM with SMN2 mRNA and 100 to 1000 nM with HTT. The GI50 in test [1] was in the range of 100 to 1000 nM.
Take `Cn1cc2cc(-c3cc(F)c4c(=O)n(C5CCNCC5)ccc4c3)cc(C#N)c2n1` [Compound 394, 5-(8-fluoro-1-oxo-2-(piperidin-4-yl)-1,2-dihydroisoquinolin-6-yl)-2-methyl-2H-indazole-7-carbonitrile]: the IC50 in the test with SMN2 mRNA and in the test with HTT was < 100 nM throughout. In addition, the GI50 in test [1] is < 100 nM.
Turning to `COc1cc(-c2cc(C)c3nc(C)cn3n2)cc2ccn(C3CCNCC3)c(=O)c12` [Compound 399, 6-{2,8-dimethylimidazo[1,2-b]pyridazin-6-yl}-8-methoxy-2-(piperidin-4-yl)isoquinolin-1-one], the IC50 in the test on SMN2 mRNA was < 100 nM; in the test on HTT, 100 to 1000 nM. Besides, the GI50 in test [1] was in the range of 100 to 1000 nM.
On to `Cc1cn2nc(-c3cc(F)c4c(=O)n(C5CCN(C)CC5)ccc4c3)cc(C)c2n1` [Compound 400, 6-(2,8-dimethylimidazo[1,2-b]pyridazin-6-yl)-8-fluoro-2-(1-methylpiperidin-4-yl)isoquinolin-1(2H)-one], for which the IC50 with SMN2 mRNA and in the test with HTT was < 100 nM in each case. The GI50 in test [1] was 100 to 1000 nM.
Turning to `CCN1CCC(n2ccc3cc(-c4cc(C)c5nc(C)cn5n4)ccc3c2=O)CC1` [Compound 402, 6-{2,8-dimethylimidazo[1,2-b]pyridazin-6-yl}-2-(1-ethylpiperidin-4-yl)isoquinolin-1-one], the IC50 in the test with SMN2 mRNA and in the test on HTT was < 100 nM in each case. Also, the GI50 in test [1] was 100 to 1000 nM.
As to `Cc1cn2cc(-c3ccc4c(=O)n([C@H]5CCCNC5)ccc4c3)cc(F)c2n1` [Compound 404, 6-{8-fluoro-2-methylimidazo[1,2-a]pyridin-6-yl}-2-[(3S)-piperidin-3-yl]isoquinolin-1-one], the IC50 in the test on SMN2 mRNA was < 100 nM; in the test with HTT, 1000 to 10000 nM. Moreover, the GI50 in test [1] was in the range of 1000 to 10000 nM.
Consider `Cc1cn2cc(-c3cc(S(C)(=O)=O)c4c(=O)n(C5CCNCC5)ccc4c3)cc(F)c2n1` [Compound 409, 6-(8-fluoro-2-methylimidazo[1,2-a]pyridin-6-yl)-8-(methylsulfonyl)-2-(piperidin-4-yl)isoquinolin-1(2H)-one], for which the IC50 with SMN2 mRNA and with HTT was > 10000 nM throughout. For the same molecule, in test [1], the GI50 was > 10000 nM.
In the case of `Cn1cc2cc(-c3cc(F)c4c(=O)n(C5CCNC6(CC6)C5)ccc4c3)cc(F)c2n1` (stereo not drawn) [Compound 412], the IC50 in the test with SMN2 mRNA and in the test on HTT was < 100 nM each time. Also, in test [1], the GI50 is < 100 nM.
As to `Cc1cn2cc(-c3cc(F)c4c(=O)n(C5CCNC6(CC6)C5)ccc4c3)cc(Cl)c2n1` (stereo not drawn) [Compound 413, 2-{4-azaspiro[2.5]octan-7-yl}-6-{8-chloro-2-methylimidazo[1,2-a]pyridin-6-yl}-8-fluoroisoquinolin-1-one], the IC50 with SMN2 mRNA and with HTT was < 100 nM in each case. For the same molecule, the GI50 in test [1] is < 100 nM.
`Cn1cc2cc(-c3cc(F)c4c(=O)n(C5CCNC6(CC6)C5)ccc4c3)c(O)cc2n1` (stereo not drawn) [Compound 414, 2-{4-azaspiro[2.5]octan-7-yl}-8-fluoro-6-(6-hydroxy-2-methylindazol-5-yl)isoquinolin-1-one]: the figures for the IC50 in the test with SMN2 mRNA and in the test on HTT were 100 to 1000 nM and 1000 to 10000 nM, respectively. In addition, the GI50 in test [1] was > 10000 nM.
In the same order, the values of `Cc1cc(-c2cc(F)c3c(=O)n(C4CCNC5(CC5)C4)ccc3c2)cc2cn(C)nc12` (stereo not drawn) [Compound 415, 2-{4-azaspiro[2.5]octan-7-yl}-6-(2,7-dimethylindazol-5-yl)-8-fluoroisoquinolin-1-one] are < 100 nM, < 100 nM and 100 to 1000 nM.
As to `Cc1cn2cc(-c3cc(F)c4c(=O)n(C5CCNC6(CC6)C5)ccc4c3)cc(C)c2n1` (stereo not drawn) [Compound 416, 2-{4-azaspiro[2.5]octan-7-yl}-6-{2,8-dimethylimidazo[1,2-a]pyridin-6-yl}-8-fluoroisoquinolin-1-one], the half-inhibitory concentration (IC50) in the test with SMN2 mRNA and with HTT was < 100 nM each time. In test [1], the GI50 is < 100 nM.
`Cc1nc2c(F)cc(-c3cc(F)c4c(=O)n(C5CCNC6(CC6)C5)ccc4c3)cc2o1` (stereo not drawn) [Compound 417, 2-{4-azaspiro[2.5]octan-7-yl}-8-fluoro-6-(4-fluoro-2-methyl-1,3-benzoxazol-6-yl)isoquinolin-1-one]: the IC50 with SMN2 mRNA and with HTT was < 100 nM throughout. The GI50 in test [1] was < 100 nM.
As to `Cc1nc2c(C)cc(-c3cc(F)c4c(=O)n(C5CCNC6(CC6)C5)ccc4c3)cc2o1` (stereo not drawn) [Compound 418, 2-{4-azaspiro[2.5]octan-7-yl}-6-(2,4-dimethyl-1,3-benzoxazol-6-yl)-8-fluoroisoquinolin-1-one], the IC50 with SMN2 mRNA and in the test on HTT was < 100 nM throughout. Also, the GI50 in test [1] fell in the range of 100 to 1000 nM.
In the case of `Cc1c(O)c(-c2cc(F)c3c(=O)n(C4CCNC5(CC5)C4)ccc3c2)cc2cn(C)nc12` (stereo not drawn) [Compound 419, 2-{4-azaspiro[2.5]octan-7-yl}-8-fluoro-6-(6-hydroxy-2,7-dimethylindazol-5-yl)isoquinolin-1-one], the IC50 in the test with SMN2 mRNA is 100 to 1000 nM; with HTT it was > 10000 nM. The GI50 in test [1] is > 10000 nM.
Consider `Cn1cc2cc(-c3cc(F)c4c(=O)n(C5CCNC6(CC6)C5)ccc4c3)c(O)c(F)c2n1` (stereo not drawn) [Compound 420, 2-{4-azaspiro[2.5]octan-7-yl}-8-fluoro-6-(7-fluoro-6-hydroxy-2-methylindazol-5-yl)isoquinolin-1-one], for which the results for the IC50 in the test with SMN2 mRNA and in the test on HTT were < 100 nM and 1000 to 10000 nM, respectively. Also, the GI50 in test [1] lay in the range of 1000 to 10000 nM.
For `Cc1cn2cc(-c3cc(F)c4c(=O)n(C5CCNC6(CC6)C5)ccc4c3)c(O)c(C)c2n1` (stereo not drawn) [Compound 421, 2-{4-azaspiro[2.5]octan-7-yl}-8-fluoro-6-{7-hydroxy-2,8-dimethylimidazo[1,2-a]pyridin-6-yl}isoquinolin-1-one], the IC50 in the test with SMN2 mRNA and in the test on HTT was > 10000 nM in each case. The GI50 in test [1] was > 10000 nM.
Turning to `Cc1cn2nc(-c3cc(C)c4c(=O)n(C5CCNC6(CC6)C5)ncc4c3)cc(C)c2n1` (stereo not drawn) [Compound 423, 6-(2,8-dimethylimidazo[1,2-b]pyridazin-6-yl)-8-methyl-2-(4-azaspiro[2.5]octan-7-yl)phthalazin-1(2H)-one], the IC50 with SMN2 mRNA and with HTT was < 100 nM throughout. The GI50 in test [1] fell in the range of 100 to 1000 nM.
With `Cc1cn2cc(-c3cc(F)c4c(=O)n(C5CCNC6(CC6)C5)ccc4c3)ncc2n1` (stereo not drawn) [Compound 428, 8-fluoro-6-(2-methylimidazo[1,2-a]pyrazin-6-yl)-2-(4-azaspiro[2.5]octan-7-yl)isoquinolin-1(2H)-one], the IC50 is < 100 nM in the test on SMN2 mRNA and 100 to 1000 nM in the test with HTT. For the same molecule, the GI50 in test [1] was in the range of 1000 to 10000 nM.
As for `Cc1cc(-c2cc(F)c3c(=O)n(C4CCNC5(CC5)C4)ccc3c2)cc2c1nc(C)n2C` (stereo not drawn) [Compound 429], the IC50 in the test on SMN2 mRNA and with HTT was > 10000 nM each time. The GI50 in test [1] is 1000 to 10000 nM.
